The results in this text go back to paper PMC12386934, “Characteristics and Potential of KSL, KSL-W, and Dadapin-1 Antimicrobial Peptides for Preventing Infections of Orthopedic Prosthetic Devices: Identifying the Most Robust Candidate” (International Journal of Molecular Sciences, 2025).

Converted amounts (≈) assume the structure as drawn. Where a SMILES comes first, the peptide text is derived from it.

Holding throughout (type): cell-based
Assay [1] relates to S. epidermidis cra4029 (SE 02). The text has this:
(§1) The experimental scheme reported in Figure 6 helped to simplify and optimize the in vitro testing of the antibacterial activity of the different AMPs. The initial transparent microtiter plate for the determination of the minimum inhibitory concentration (MIC) by optical density (OD) measurement was conveniently used as a starting point not only for the alterative determination of the MIC by luminescence but also for the minimum bactericidal concentration (MBC) and for the minimum biofilm inhibitory concentration (MBIC), as explained below. For every test peptide, at least three independent experiments were performed on each bacterial strain per test condition (100% MHB and 20% MHB). The sole exception to this rule was when MIC values were on rare occasions found to be greater than 500 µg/mL. Under these circumstances, two consecutive experiments were performed to confirm the results. In this case, the antibacterial activity was considered insignificant and the third experiment was generally considered unnecessary.
The antibacterial properties of the test AMPs were assayed under two distinct conditions of bacterial culture: (i) with bacteria cultured in undiluted Mueller–Hinton II Broth (MHB II) and (ii) with bacteria cultured in diluted MHB II as earlier described in Campoccia et al.. Briefly, a few colonies of each bacterial strain, taken from overnight cultures on Mueller–Hinton Agar plates (MHA, PO50007A, ThermoScientific, Thermo Fisher Scientific, Segrate, Italy), were resuspended in Mueller–Hinton II Broth (MHB II, 24107, Liofilchem, Roseto degli Abruzzi, Italy), either undiluted or at a 20% dilution in deionized water. The concentration of bacteria was adjusted to approximately 10^8 CFU/mL, as estimated by optical density reading at 625 nm, using a Hewlett Packard G1103A spectrophotometer (Waldbronn, Germany). The bacterial suspension was further diluted 1:100 in 100% or 20% MHB II. […]
For assessing the MBC, 10 μL of bacterial suspensions was taken from wells corresponding to MIC, 2× MIC, and 4× MIC and then plated on MHA plates. […] The MBC was determined as the lowest dilution causing absence of bacterial colonies growth on the plate.
In order to assess the extent of the interference of the culture medium composition with the antibacterial activity of the three peptides, a “Rate of Abatement” of the bactericidal properties (RoA) was calculated using the following formula (Equation (1)):RoA = MBCMHB/MBC20% MHB(1)
RoA indicates the fold increases in the MBC when tested in undiluted medium […], i.e., with maximal interference of broth polyanionic substances, with respect to diluted medium […]. […] A more versatile measure to express the loss of activity was calculated as follows. […]

For a further assay, the system named is E. coli cra4038 (EC). The conditions noted are these: cra4038 (EC).
Description: as §1
(§2) The antibacterial properties of the test AMPs were assayed under two distinct conditions of bacterial culture: (i) with bacteria cultured in undiluted Mueller–Hinton II Broth (MHB II) and (ii) with bacteria cultured in diluted MHB II as earlier described in Campoccia et al.. Briefly, a few colonies of each bacterial strain, taken from overnight cultures on Mueller–Hinton Agar plates (MHA, PO50007A, ThermoScientific, Thermo Fisher Scientific, Segrate, Italy), were resuspended in Mueller–Hinton II Broth (MHB II, 24107, Liofilchem, Roseto degli Abruzzi, Italy), either undiluted or at a 20% dilution in deionized water. The concentration of bacteria was adjusted to approximately 10^8 CFU/mL, as estimated by optical density reading at 625 nm, using a Hewlett Packard G1103A spectrophotometer (Waldbronn, Germany). The bacterial suspension was further diluted 1:100 in 100% or 20% MHB II.
(§3) Serial 1:2 dilutions of all the test peptides were prepared in sterile deionized water starting from a stock solution of 1 mg/mL. Microtiter plates (96-Well CytoOne® Plate, CC7672-7596, Starlab S.r.l., Milano, Italy) were prepared by adding a volume of 100 µL of inoculum to 100 µL of treatment. Each AMP dilution was assayed in triplicate; each microplate included triplicate wells for the blank (100 µL of sterile distilled water and 100 µL of sterile MHB II), and 3 to 6 wells for reference control of 100% growth (100 µL of sterile deionized water and 100 µL of MHB II inoculated with the bacterium). Positive controls were performed in triplicate wells with 100 µL of a 10 mg/mL gentamicin solution (G1272, Sigma Aldrich, Milan, Italy) and with 100 µL of a solution containing 10,000 units/mL of penicillin and 10,000 µg/mL of streptomycin (penicillin–streptomycin, 15140-122, Life Technologies, Monza, Italy).
(§4) The wells of the microplate, initially used for the determination of the MIC, were rinsed twice with 220 µL of phosphate-buffered solution (PBS) to remove loosely attached and planktonic bacteria. A total of 100 µL of fresh PBS and 100 µL of Bac-Titer Glo solution (G8231, Promega Italia S.r.l., Milan, Italy) were added to each well. After a 10 min incubation, a volume of 100 µL was transferred to a new microplate for luminescence determination as described above. As a general rule, the MBIC value was identified as the concentration at which a reduction of at least a log in the metabolic activity was observed.

Assay [2] has as its system E. faecalis cra4024 (EF 01).
Description: as §1, §2, §3, §4

Assay [3] has as its system E. faecalis cra4033 (EF 02).
Description: as §1, §2, §3, §4

Assay [4] relates to P. aeruginosa cra3840 (PA 02). To be noted: cra3840 (PA 02, 24 h).
Description: as §1, §2, §3, §4

The test system of assay [5] is P. aeruginosa cra4004 (PA 01).
Description: as §1, §2, §3, §4

The subject of assay [6] is S. aureus cra2198 (SA 02). The conditions noted are these: cra2198 (SA 02).
Description: as §1, §2, §3, §4

Assay [7] deals with S. aureus cra4030 (SA 01). To be noted: cra4030 (SA 01, 24 h).
Description: as §1, §2, §3, §4

In assay [8] the test system is S. epidermidis cra4029 (SE 02).
Description: as §1, §2, §3, §4
This is another data set of the same source.

The test system of assay [9] is S. epidermidis cra4034 (SE 01). To be noted: cra4034 (SE 01).
Description: as §1, §2, §3, §4

Take `CC(C)[C@H](NC(=O)[C@H](Cc1c[nH]c2ccccc12)NC(=O)[C@H](Cc1ccccc1)NC(=O)[C@@H](NC(=O)[C@@H](NC(=O)[C@H](CCCCN)NC(=O)[C@@H](N)CCCCN)C(C)C)C(C)C)C(=O)N[C@@H](CCCCN)C(=O)N[C@@H](Cc1ccccc1)C(=O)N[C@@H](CCCCN)C(=O)O` [KSL-W] (H-KKVVFWVKFK-OH): the minimum bactericidal concentration (MBC) in assay [1] worked out at 1.95 µg/mL (≈ 1.49 µM). For the same molecule, the “LR, Log10 reduction in bacterial metabolism for a given MBIC” value came out at 3 LR in the assay on E. coli cra4038 (EC); 3 LR in assay [2] (cra4024 (EF 01)); 2 LR in assay [3] (cra4033 (EF 02)); 2 LR in assay [5]; 3 LR in assay [6]; 2 LR in [8] (cra4029 (SE 02)). For the same molecule, the “LR, Log10 reduction in bacterial metabolism for a given MBIC” value in assay [9] is reported as 3 LR. The MBIC in [2] (cra4024 (EF 01, 24 h)) is 3.91 to 7.81 µg/mL; in [3] (cra4033 (EF 02, 24 h)), 3.91 µg/mL; in [4], 31.25 µg/mL; in assay [7], 31.25 µg/mL; in assay [8] (cra4029 (SE 02, 24 h)) it was 0.24 to 0.49 µg/mL.
